Reference: ChEMBL document CHEMBL5608113, “Targeting of CAF-induced therapy resistance in CRC organoid-stroma co-cultures” (2024)

How the values were obtained:
Type in all cases: functional, Homo sapiens
Details in all cases: Homo sapiens, read-out: Cell Viability; for viability at 10 µM: Concentration 10 uM; for viability at 1 µM: Concentration 1 uM
[1] = test system: Colon cancer organoid; assay: Targeting of F14 CAF-induced therapy resistance in O14 CRC organoid-stroma co-culture. Cell viability is reported with Gefitinib.
[2] = test system: Colon cancer organoid; assay: Targeting of F14 CAF-induced therapy resistance in O23 CRC organoid-stroma co-culture. Cell viability is reported with Gefitinib.
[3] = test system: Colon cancer organoid; assay: Targeting of F14 CAF-induced therapy resistance in O14 CRC organoid-stroma co-culture. Cell viability is reported without Gefitinib.
[4] = test system: Colon cancer organoid; assay: Targeting of F14 CAF-induced therapy resistance in O23 CRC organoid-stroma co-culture. Cell viability is reported without Gefitinib.
[5] = test system: Colon cancer organoid; assay: Targeting of F14 CAF-induced therapy resistance in O23 CRC organoid-stroma co-culture. Cell viability is reported with SN-38.

Row | Structure (SMILES) | viability at 10 µM [1] [%] | viability at 10 µM [2] [%] | viability at 10 µM [3] [%] | viability at 10 µM [4] [%] | viability at 10 µM [5] [%] | viability at 1 µM [1] [%] | viability at 1 µM [2] [%] | viability at 1 µM [3] [%] | viability at 1 µM [4] [%] | viability at 1 µM [5] [%]
1 | CCn1cc(-c2cccc(C(F)(F)F)c2)c2sc(C(=N)NC3CCS(=O)(=O)CC3)cc2c1=O | 66.7 | 68.8 | 132 | 144 | 84.2 | – | – | – | – | –
2 | O=C(O)CNC(=O)c1c(O)c2ccccc2n(Cc2ccccc2)c1=O | 80.4 | 67.5 | 103 | 167 | 95.1 | – | – | – | – | –
3 | CC(C)Oc1ccc(-c2c[nH]cc2CN(C)CCO)cc1 | 58.5 | 90.2 | 72 | 129 | 80.1 | – | – | – | – | –
4 | O=C(Nc1cnc(Oc2ccc(F)cc2)nc1)N1CCc2ncccc2[C@@H]1c1ccc(F)cc1 [BAY-899] | 39.4 | 63.6 | 98.8 | 223 | 59.1 | – | – | – | – | –
5 | CN(c1ccnc(CNc2nc(Nc3ccc4c(c3)CC(=O)N4)ncc2C(F)(F)F)n1)S(C)(=O)=O [PF-00911705] | – | – | – | – | – | 48 | 34.6 | 87 | 87.4 | 73.5
6 | Cn1cc(Cl)c2c(Oc3c(F)cc(Nc4cc(Cl)nc(N)n4)cc3F)ccnc21 [BAY-4900] | 30.9 | 40.3 | 85 | 107 | 54.4 | – | – | – | – | –
7 | Cc1ccc(NC(=O)Nc2cc(C(F)(F)F)ccc2F)cc1Nc1ccc2c(c1)NC(=O)/C2=C\c1ccc[nH]1 | 40 | 82.1 | 121 | 117 | 74.2 | – | – | – | – | –
8 | Cc1cnc(-c2cc(Cl)ccc2F)cc1-n1c(=O)n(CC(N)=O)c2ccccc21 [Al11] | 31.3 | 94.6 | 104 | 120 | 66.2 | – | – | – | – | –
9 | COCc1nc2cnc3cc(-c4c(C)noc4C)c(OC[C@H]4CCNC4)cc3c2n1[C@H](C)c1ccccc1 [GSK778] | 8.04 | 47.2 | 40 | 95.6 | 48.8 | – | – | – | – | –
10 | CN1CCN(C(=O)C(C)(C)c2ccc(C(=O)Nc3cn4cc(-c5ccncc5)ccc4n3)cc2)CC1 [T3-CLK] | 7.96 | 12.1 | 38.4 | 27.9 | 18.9 | – | – | – | – | –
11 | c1ccc(N2CCN(Cc3nc4ccccc4[nH]3)CC2)nc1 | 57.8 | 66.8 | 134 | 163 | 106 | – | – | – | – | –
12 | C[C@@H](NC(=O)Nc1cc2[nH]ncc2c(CO)n1)c1ccccc1 [ERKi] | 10.3 | 4.5 | 49.2 | 14.3 | 14.3 | – | – | – | – | –
13 | COc1ccc2cc(OCC3(C(=O)O)CN(C(=O)c4ccc(F)cc4)C3)ccc2c1 [PF-04418948] | – | – | – | – | – | 43 | 40.3 | 141 | 142 | 81.3
14 | CCC(=N\O)/C(C)=C/c1ccc(F)c(C)c1 [A-226] | 62.5 | 49.8 | 119 | 97.1 | 93.1 | – | – | – | – | –
15 | CCNC(=O)c1cc2c(N3CCOC[C@@H]3C)ccnc2n1C | 36.3 | 38.3 | 70.2 | 104 | 84.1 | – | – | – | – | –
16 | Clc1cccc(-c2nnnn2Cc2cccnc2)c1Cl | 60.2 | 47.8 | 127 | 106 | 77.1 | – | – | – | – | –
17 | CCc1cc2cc(NS(=O)(=O)c3ccc(C#N)cc3)ccc2n(CC)c1=O | 84 | 73.6 | 106 | 127 | 88.2 | – | – | – | – | –
